Reference: ChEMBL document CHEMBL6092137, “Synergistic immune augmentation enabled by covalently conjugating TLR4 and NOD2 agonists” (Eur J Med Chem, 2024)
Active and inactive are the calls of the source. No cut-off for these calls is given here.

Tests used:
[1] = Toxicity in immunized BALB/c mouse assessed as inflammatory cell infiltration in lungs measured on day 42 by H and E staining based analysis; conditions: 1008 h, time 42 day
[2] = Toxicity in immunized BALB/c mouse assessed as change in ALT level measured on day 42 […]; conditions: in vivo, 1008 h, time 42 day
Mus musculus [3] = species: Mus musculus; assay: Activation of adaptive immune response in ovalbumin immunized mouse model assessed as fold increase in IgG titers incubated for 1 hrs and measured on day 42 relative to combination of RC529 and Muramyl dipeptide; format: functional
Mus musculus [4] = species: Mus musculus; assay: Activation of adaptive immune response in ovalbumin immunized mouse model assessed as increase in IgG titers incubated for 1 hrs and measured on 28 to 42 days; format: functional, organism-based
Mus musculus [5] = assay: Induction of innate immunity in BALB/c mouse assessed as fold increase in IL-6 level in serum at 22.53 ug, ip measured after 2 hrs by ELISA; format: functional; conditions: dose 22.53 µg
[6] = Induction of mouse BMDC cell maturation assessed as change in CD80 positive cells incubated for 18 hrs by staining based flow cytometric analysis relative to control; format: functional
[7] = Induction of mouse BMDC cell maturation assessed as fold increase in CD80 and CD86 positive cells incubated for 18 hrs by staining based flow cytometric analysis relative to combination of RC529 and Muramyl dipeptide; format: functional
[8] = Toxicity in immunized BALB/c mouse assessed as vascular congestion in liver measured on day 42 by H and E staining based analysis; conditions: in vivo, 1008 h, time 42 day
[9] = Induction of mouse BMDC cell maturation assessed as change in CD86 positive cells incubated for 18 hrs by staining based flow cytometric analysis relative to control; format: functional
THP-1 = assay: Cytotoxicity against human THP-1 cells assessed as reduction in cell viability by MTT assay; format: toxicity, cell-based
[10] = Induction of mouse RAW264.7 cell maturation assessed as fold increase in CD80 and CD86 positive cells incubated for 18 hrs by staining based flow cytometric analysis relative to combination of RC529 and Muramyl dipeptide; format: functional
Mus musculus [11] = species: Mus musculus; assay: Activation of adaptive immune response in ovalbumin immunized mouse model assessed as increase in IgG1 titers incubated for 1 hrs and measured on day 42; format: functional, organism-based
[12] = Induction of mouse BMDC cell maturation assessed as fold increase in CD80 positive cells incubated for 18 hrs by staining based flow cytometric analysis relative to combination of RC529 and Muramyl dipeptide; format: functional
T-cell [13] = assay: Immunostimulatory activity in mouse spleen T-lymphocytes assessed as fold increase in proportion of TNF-alpha and IFN-gamma double-positive secreting CD4+ cells and measured on day 42 by staining based flow cytometric analysis relative to muramyl dipeptide; format: functional; conditions: time 42 day
[14] = Induction of mouse RAW264.7 cell maturation assessed as change in CD80 positive cells incubated for 18 hrs by staining based flow cytometric analysis relative to control; format: functional
[15] = Toxicity in immunized BALB/c mouse assessed as vascular congestion in kidneys measured on day 42 by H and E staining based analysis; conditions: in vivo, 1008 h, time 42 day
[16] = Induction of mouse RAW264.7 cell maturation assessed as change in CD86 positive cells incubated for 18 hrs by staining based flow cytometric analysis relative to control; format: functional
T-cell [17] = assay: Immunostimulatory activity in mouse spleen T-lymphocytes assessed as fold increase in proportion of IFN-gamma positive secreting CD4+ cells and measured on day 42 by staining based flow cytometric analysis relative to RC529 and muramyl dipeptide combination; format: functional; conditions: time 42 day
[18] = Toxicity in immunized BALB/c mouse assessed as vascular congestion in heart measured on day 42 by H and E staining based analysis; format: tissue-based; conditions: in vivo, 1008 h, time 42 day
[19] = Toxicity in immunized BALB/c mouse assessed as inflammatory cell infiltration in brain measured on day 42 by H and E staining based analysis; format: tissue-based; conditions: 1008 h, time 42 day
[20] = Toxicity in immunized BALB/c mouse assessed as inflammatory cell infiltration in liver measured on day 42 by H and E staining based analysis; conditions: 1008 h, time 42 day
[21] = Toxicity in immunized BALB/c mouse assessed as inflammatory cell infiltration in heart measured on day 42 by H and E staining based analysis; format: tissue-based; conditions: 1008 h, time 42 day
[22] = Immunostimulatory activity in C57BL/6 mouse BMDC cells assessed as TLR4 inhibitor mediated reduction in IL-6 level at 9.3 uM incubated for 20 hrs in presence of GSK717 by ELISA; format: functional; design: scale not given: the % may be the effect or the level left
[23] = Induction of mouse RAW264.7 cell maturation assessed as fold increase in CD86 positive cells incubated for 18 hrs by staining based flow cytometric analysis relative to combination of RC529 and Muramyl dipeptide; format: functional
[24] = Toxicity in immunized BALB/c mouse assessed as vascular congestion in lungs measured on day 42 by H and E staining based analysis; conditions: in vivo, 1008 h, time 42 day
[25] = Induction of mouse BMDC cell maturation assessed as fold increase in CD86 positive cells incubated for 18 hrs by staining based flow cytometric analysis relative to combination of RC529 and Muramyl dipeptide; format: functional
[26] = Toxicity in immunized BALB/c mouse assessed as vascular congestion in brain measured on day 42 by H and E staining based analysis; format: tissue-based; conditions: in vivo, 1008 h, time 42 day
[27] = Toxicity in immunized BALB/c mouse assessed as inflammatory cell infiltration in spleen measured on day 42 by H and E staining based analysis; conditions: 1008 h, time 42 day
[28] = Immunostimulatory activity in female BALB/c mouse spleen T-lymphocytes assessed as fold increase in proportion of Tcm in CD4+ cells and measured on day 42 by staining based flow cytometric analysis relative to combination of RC529 and Muramyl dipeptide; format: functional, T-cell; conditions: time 42 day
Mus musculus [29] = species: Mus musculus; assay: Activation of adaptive immune response in ovalbumin immunized mouse model assessed as increase in IgG2b titers incubated for 1 hrs and measured on day 42; format: functional, organism-based
[30] = Immunostimulatory activity in C57BL/6 mouse BMDC cells assessed as TLR4 inhibitor mediated reduction in IL-6 level at 9.3 uM incubated for 20 hrs in presence of TAK242 by ELISA; format: functional; design: scale not given: the % may be the effect or the level left
[31] = Immunostimulatory activity in mouse spleen T-lymphocytes assessed as fold increase in proportion of TNF-alpha positive secreting CD4+ cells and measured on day 42 by staining based flow cytometric analysis relative to RC529 and muramyl dipeptide combination; format: functional, T-cell
Mus musculus [32] = species: Mus musculus; assay: Activation of adaptive immune response in ovalbumin immunized mouse model assessed as increase in IgG2a titers incubated for 1 hrs and measured on day 42; format: functional, organism-based
[33] = Toxicity in immunized BALB/c mouse assessed as vascular congestion in spleen measured on day 42 by H and E staining based analysis; conditions: in vivo, 1008 h, time 42 day
[34] = Immunostimulatory activity in C57BL/6 mouse BMDC cells assessed as TLR4/NOD2 inhibitor mediated reduction in IL-6 level at 9.3 uM incubated for 20 hrs in presence of TAK242/ GSK717 by ELISA; format: functional; design: scale not given: the % may be the effect or the level left
T-cell [35] = assay: Immunostimulatory activity in mouse spleen T-lymphocytes assessed as fold increase in proportion of TNF-alpha and IFN-gamma double-positive secreting CD8+ cells and measured on day 42 by staining based flow cytometric analysis relative to combination of RC529 and muramyl dipeptide; format: functional; conditions: time 42 day
[36] = Immunostimulatory activity in female BALB/c mouse spleen T-lymphocytes assessed as fold increase in proportion of Tcm in CD8+ cells and measured on day 42 by staining based flow cytometric analysis relative to combination of RC529 and Muramyl dipeptide; format: functional, T-cell; conditions: time 42 day
[37] = Induction of mouse RAW264.7 cell maturation assessed as fold increase in CD80 positive cells incubated for 18 hrs by staining based flow cytometric analysis relative to combination of RC529 and Muramyl dipeptide; format: functional
[38] = Toxicity in immunized BALB/c mouse assessed as change in AST level measured on day 42 […]; conditions: in vivo, 1008 h, time 42 day
[39] = Toxicity in immunized BALB/c mouse assessed as inflammatory cell infiltration in kidneys measured on day 42 by H and E staining based analysis; conditions: 1008 h, time 42 day
T-cell [40] = assay: Immunostimulatory activity in mouse spleen T-lymphocytes assessed as fold increase in proportion of TNF-alpha and IFN-gamma double-positive secreting CD4+ cells and measured on day 42 by staining based flow cytometric analysis RC529; format: functional; conditions: time 42 day

For `CCCCCCCCCCCCCC(=O)O[C@H](CCCCCCCCCCC)CC(=O)NCCO[C@@H]1O[C@H](CNC(=O)CCc2cn(CCO[C@@H]3O[C@H](CO)[C@@H](O)[C@H](O[C@H](C)C(=O)N[C@H](C)C(=O)N[C@H](CCC(=O)O)C(N)=O)[C@H]3NC(C)=O)nn2)[C@@H](OP(=O)(O)O)[C@H](OC(=O)C[C@@H](CCCCCCCCCCC)OC(=O)CCCCCCCCCCCCC)[C@H]1NC(=O)C[C@@H](CCCCCCCCCCC)OC(=O)CCCCCCCCCCCCC`, the Activity [1] was “Non-toxic”, the Activity [2] was “Non-toxic” and the “fold change (FC)” value (Mus musculus [3]) was 2. For the same compound, the Activity (Mus musculus [4]) was “Active”, the “fold change (FC)” value (Mus musculus [5]) was 6.8 and the Activity [6] was 31.5%. The “fold change (FC)” value [7] was 1.7, the Activity [8] was “Non-toxic” and the Activity [9] was 22.4%. For the same compound, the Activity (THP-1) was “Non-toxic”, the “fold change (FC)” value [10] was 2.1 and the Activity (Mus musculus [11]) was “Active”. The “fold change (FC)” value [12] was 1.3, the “fold change (FC)” value (T-cell [13]) was 1.5 and the Activity [14] was 40.4%. For the same compound, the Activity [15] was “Non-toxic”, the Activity [16] was 29.9% and the “fold change (FC)” value (T-cell [17]) was 1.3. The Activity [18] was “Non-toxic”, the Activity [19] was “Non-toxic” and the Activity [20] was “Non-toxic”. For the same compound, the Activity [21] was “Non-toxic”, the Activity [22] was 58% and the “fold change (FC)” value [23] was 2.2. For the same compound, the Activity [24] was “Non-toxic”, the “fold change (FC)” value [25] was 1.5 and the Activity [26] was “Non-toxic”. For the same compound, the Activity [27] was “Non-toxic”, the “fold change (FC)” value [28] was 1.2 and the Activity (Mus musculus [29]) was “Active”. The Activity [30] was 98%, the “fold change (FC)” value [31] was 1.3 and the Activity (Mus musculus [32]) was “Active”. For the same compound, the Activity [33] was “Non-toxic”, the Activity [34] was 99% and the “fold change (FC)” value (T-cell [35]) was 3.3. For the same compound, the “fold change (FC)” value [36] was 2.7, the “fold change (FC)” value [37] was 1.4 and the Activity [38] was “Non-toxic”. For the same compound, the Activity [39] was “Non-toxic” and the “fold change (FC)” value (T-cell [40]) was 1.6.
